{"source": "patent US20160101176A1", "about": "“POLYMERIC HYDROGEL PHARMACEUTICAL COMPOSITIONS WITH ON-DEMAND RELEASE OF A DRUG IN RESPONSE TO A ELECTRICAL STIMULUS” (UNIVERSITY OF THE WITWATERSRAND, JOHANNESBURG, priority 2013, published 2016)", "origin": "cited, not measured here", "key": {"plasma proteins": {"test_system": "plasma proteins", "details": "Raveendran et al., 1992"}, "[1]": {"details": "rat's cardio-vascular system; Elahi et al., 2009"}}}
{"molecule": "COc1ccc2c(c1)c(CC(=O)O)c(C)n2C(=O)c1ccc(Cl)cc1", "note": "[indomethacin]", "values": [{"measurement": "protein binding", "setting": "plasma proteins", "value": "highly protein bound"}, {"measurement": "t1/2", "setting": "[1]", "value": "7 to 10", "unit": "h"}]}
